One data set has as its system human urethra. Briefly: Efficacy: contraction of human urethra compared with noradrenaline. Conditions: percentage of contraction compared with noradrenaline. Type of data set: cell-based. The protocol:
(§1) The efficacy and selectivity of the compound according to the invention is determined as follows, using the same findings as described in 1:
Maximum contraction in the dog and activity on human urethra are percentages of contraction compared with noradrenaline.

Data set [1] deals with dog's femoral artery; carotid artery in the dog. As to the kind of experiment: Selectivity in the dog: femoral artery versus carotid artery contraction. The class given is cell-based. The conditions noted are these: difference of percentage contraction of dog's femoral artery at 10^-5 M and percentage contraction of carotid artery at 10^-5 M. As to the method:
as §1
Selectivity in the dog is the difference obtained from the percentage contraction of the dog's femoral artery at 10^-5 M and percentage contraction of the carotid artery in the dog at 10^-5 M.

Data set [2] can be described thus: Metabolism: substrate breakdown by the enzyme CYP2D6. Type of data set: in vitro ADME. Conditions: 30 minutes' incubation with CYP2D6; read-out: % Substrate breakdown after 30 minutes' incubation with CYP2D6. The protocol: To determine the metabolism the enzyme CYP2D6 was allowed to act on the hydrochloride of the compound 1 according to the formula I (2-amino-1-(4-hydroxy-3-methanesulphonamidophenyl)ethanol). After 30 minutes a check was made to determine how much of the substance had been broken down by the enzyme. (-)-R-2-Amino-1-(2-fluoro-5-methanesulphonamido-phenyl)ethanol 2 was used as a comparison.

For the molecule `CS(=O)(=O)Nc1cc(C(O)CN)ccc1O` (stereo not drawn) [Compound 1, 2-amino-1-(4-hydroxy-3-methanesulphonamidophenyl)ethanol], the maximal response (Emax) with human urethra was determined as 120%. In data set [1], the “selectivity in the dog” value is on record as 53. Also, in data set [2], the metabolised at 0.5 h was found to be 1.4%.
Molecule `CS(=O)(=O)Nc1ccc(F)c([C@@H](O)CN)c1` [Compound 2, (-)-R-2-Amino-1-(2-fluoro-5-methanesulphonamido-phenyl)ethanol] displayed a maximum response (Emax) in the data set on human urethra of 48%. Further, in data set [1], the “selectivity in the dog” value is 40. The metabolised at 0.5 h in data set [2] was 2.1%.

Broadly, the Emax is the maximal effect, on the per cent scale that the assay sets.

These data come from patent EP1363614B1, “USE OF 2-AMINO-1-(4-HYDROXY-3-METHANESULPHONAMIDOPHENYL)ETHANOL FOR TREATING URINARY INCONTINENCE” (Boehringer Ingelheim Pharma GmbH & Co. KG, priority 2001, dated 2002).
